Source: patent US7727995B2, “Antiherpes drug combinations” (University of Massachusetts, priority 2003, dated 2010)
Read-outs that look alike come from different tables or passages of the source. Marks after values point to notes of the source that are not given here.

Key:
[1] = test system: HSV1; details: 150 μM; trigeminal ganglia of HSV1 latent mice on Vero cells; cited from earlier work
[2] = test system: McKrae strain of HSV-1; experiment: Inhibition of HSV encephalitis in mice, HSV-1 infection; assay type: in vivo
Protocol: (§1) BALB/c female mice at 6 weeks of age were anesthetized, their corneas lightly scratched with a 27-gauge needle, and 3 μl of infectious virus (McKrae strain of HSV-1 or G strain of HSV-2; 5×10^5 PFU) was placed on each cornea. At the time of infection, groups of ten animals were given 0.1 ml injections i.p. of vehicle (corn oil) or test drug or drug combination (e.g., HBPG or foscarnet or both) in vehicle at indicated concentrations, and the animals were returned to their cages and allowed to recover from anesthesia. Treatment was repeated by a regimen optimal for the drug combination and dose. Animals were observed daily for 30 days, and the day of death of each animal was recorded.

[3] = test system: G strain of HSV-2; experiment: Inhibition of HSV encephalitis in mice, HSV-2 infection; assay type: in vivo
Protocol: as §1

[4] = test system: HSV1; details: cited from earlier work
[5] = test system: HSV2; details: mice, cited from earlier work
[6] = test system: HSV1; details: cited from earlier work; remark: listed apart in the source
[7] = HSV1, 25 mg/kg ip in corn oil, twice daily for five days
[8] = HSV1, 50 mg/kg ip in corn oil, twice daily for five days
[9] = Table 5, HSV1, 100 mg/kg ip in corn oil, twice daily for five days
[10] = HSV1, 1 mg/kg ip in corn oil, twice daily for five days
[11] = HSV1, 2.5 mg/kg ip in corn oil, twice daily for five days
[12] = HSV1, 5 mg/kg ip in corn oil, twice daily for five days
[13] = HSV2, 1 mg/kg ip in corn oil, twice daily for five days
[14] = HSV2, 2.5 mg/kg ip in corn oil, twice daily for five days
[15] = HSV2, 5 mg/kg ip in corn oil, twice daily for five days
[16] = HSV1, 100 mg/kg ip twice daily, 5 days, observed 30 days
[17] = HSV1, 200 mg/kg ip twice daily, 5 days
[18] = HSV1, 400 mg/kg ip twice daily, 5 days
[19] = HSV2, 100 mg/kg ip twice daily, 5 days
[20] = HSV2, 200 mg/kg ip twice daily, 5 days
[21] = HSV2, 400 mg/kg ip twice daily, 5 days
[22] = Table 2, HSV2, 50 mg/kg ip, bid, 5 d
[23] = Table 2, HSV2, 100 mg/kg ip, bid, 5 d

O=c1[nH]c(Nc2ccccc2)nc2c1ncn2[C@H]1C[C@H](O)[C@@H](CO)O1 [PhdG, N^2-phenyl-2′-deoxyguanosine]
number of ganglia producing virus compared to control ganglia [1]: significantly reduced

Nc1nc2c(ncn2COCCO)c(=O)[nH]1 [acyclovir]
Survivors/treated [2, 7]: 1/10 | Survivors/treated (%) [2, 7]: 10% | Survivors/treated [2, 8]: 3/10 | Survivors/treated (%) [2, 8]: 30% | Survivors/treated [2, 9]: 7/10 | Survivors/treated (%) [2, 9]: 70%

Nc1ccn(C[C@@H](CO)OCP(=O)(O)O)c(=O)n1 [cidofovir]
Survivors/treated [2, 10]: 0/10 | Survivors/treated (%) [2, 10]: 0% | Survivors/treated [2, 11]: 3/10 | Survivors/treated (%) [2, 11]: 30% | Survivors/treated [2, 12]: 9/10 | Survivors/treated (%) [2, 12]: 90% | median effective dose ([2]; HSV1 encephalitis, ip twice daily for five days): 2.5 to 5 mg/kg | Survivors/treated [3, 13]: 0/10 | Survivors/treated (%) [3, 13]: 0% | Survivors/treated [3, 14]: 4/10 | Survivors/treated (%) [3, 14]: 40% | Survivors/treated [3, 15]: 10/10 | Survivors/treated (%) [3, 15]: 100% | median effective dose ([3]; HSV2 encephalitis, ip twice daily for five days): 2.5 to 5 mg/kg

O=C(O)P(=O)(O)O [foscarnet, phosphonoformate]
Survivors/treated (%) ([2]; HSV1, 100 mg/kg ip twice daily, 5 days): (10%) | Survivors/treated [2, 16]: 1/10 | Survivors/treated (%) [2, 17]: (50%) | Survivors/treated (%) [2, 18]: (70%) | Survivors/treated [3, 19]: 0/10 | Survivors/treated (%) [3, 19]: (0%) | Survivors/treated (%) [3, 20]: (40%) | Survivors/treated (%) [3, 21]: (60%) | Survivors/treated [3, 22]: 0/10 | Survivors/treated (%) [3, 22]: (0%)

O=c1[nH]c(Nc2cccc(C(F)(F)F)c2)nc2nc[nH]c12 [m-CF3PG, N^2-(m-trifluoromethylphenyl)guanine]
number of ganglia producing virus compared to control ganglia [1]: significantly reduced

O=c1[nH]c(Nc2ccccc2)nc2c1ncn2CCCCO [HBPG, 2-phenylamino-6-oxo-9-(4-hydroxybutyl)purine]
Survivors/treated [2, 16]: 1/10 | Survivors/treated [2, 17]: 6/10* | Survivors/treated (%) [2, 17]: (60%) | Survivors/treated [2, 18]: 9/10* | Survivors/treated (%) [2, 18]: (90%) | efficacy of HBPG alone ([2]; HSV1, 25 or 50 mg/kg HBPG alone): no efficacy | Survivors/treated [3, 19]: 3/10 | Survivors/treated (%) [3, 19]: (30%) | Survivors/treated [3, 20]: 10/10* | Survivors/treated (%) [3, 20]: (100%) | Survivors/treated [3, 21]: 9/10* | Survivors/treated (%) [3, 21]: (90%) | efficacy of HBPG alone ([3]; HSV2, 25 or 50 mg/kg HBPG alone): no efficacy | Survivors/treated [3, 22]: 1/10 | Survivors/treated (%) [3, 22]: (10%) | Survivors/treated [3, 23]: 3/10 | Survivors/treated (%) [3, 23]: (30) % | amount of viral DNA in the relevant nerve ganglia ([4]; mice, HSV1): reduce the amount of viral DNA | frequency of hyperthermia-induced HSV1 reactivation ([4]; mice): reduce the frequency | preventing recurrence of ocular HSV1 disease ([4]; mouse model of latent HSV1 infection): clear efficacy | amount of viral DNA in the relevant nerve ganglia ([5]; HSV2): reduce the amount of viral DNA | frequency of hyperthermia-induced HSV2 reactivation [5]: reduce the frequency | preventing recurrence of ocular HSV1 disease ([6]; squirrel monkey model of latent HSV1 infection): clear efficacy | frequency of recurrent ocular HSV1 disease ([6]; squirrel monkeys): reduce the frequency
